Reference: paper PMC4457528, “Identification of Novel Small Molecule Inhibitors of Oncogenic RET Kinase” (PLoS ONE, 2015)
Read-outs that look alike come from different tables or passages of the source.

Experiments:
Test in all cases: KinomeScan kinase panel, single concentration 10 µM
Type in all cases: binding
KinomeScan kinase panel [1] = target: T1, KinomeScan kinase panel (Homo sapiens, UniProt Q9P2K8, S808G); details: GCN2(Kin.Dom.2.S808G), 10 µM; read-out: score (%)
T1 construct: purchased DiscoveRx (KinomeScan)

KinomeScan kinase panel [2] = target: T2, KinomeScan kinase panel (Homo sapiens, UniProt Q15746); details: MYLK, 10 µM; read-out: score (%)
T2 construct: purchased DiscoveRx (KinomeScan)

KinomeScan kinase panel [3] = target: T3, KinomeScan kinase panel (Homo sapiens, UniProt Q15349); details: 10 µM, read-out: score (%)
T3 construct: purchased DiscoveRx (KinomeScan)
T3 sequence (Q15349 whole entry): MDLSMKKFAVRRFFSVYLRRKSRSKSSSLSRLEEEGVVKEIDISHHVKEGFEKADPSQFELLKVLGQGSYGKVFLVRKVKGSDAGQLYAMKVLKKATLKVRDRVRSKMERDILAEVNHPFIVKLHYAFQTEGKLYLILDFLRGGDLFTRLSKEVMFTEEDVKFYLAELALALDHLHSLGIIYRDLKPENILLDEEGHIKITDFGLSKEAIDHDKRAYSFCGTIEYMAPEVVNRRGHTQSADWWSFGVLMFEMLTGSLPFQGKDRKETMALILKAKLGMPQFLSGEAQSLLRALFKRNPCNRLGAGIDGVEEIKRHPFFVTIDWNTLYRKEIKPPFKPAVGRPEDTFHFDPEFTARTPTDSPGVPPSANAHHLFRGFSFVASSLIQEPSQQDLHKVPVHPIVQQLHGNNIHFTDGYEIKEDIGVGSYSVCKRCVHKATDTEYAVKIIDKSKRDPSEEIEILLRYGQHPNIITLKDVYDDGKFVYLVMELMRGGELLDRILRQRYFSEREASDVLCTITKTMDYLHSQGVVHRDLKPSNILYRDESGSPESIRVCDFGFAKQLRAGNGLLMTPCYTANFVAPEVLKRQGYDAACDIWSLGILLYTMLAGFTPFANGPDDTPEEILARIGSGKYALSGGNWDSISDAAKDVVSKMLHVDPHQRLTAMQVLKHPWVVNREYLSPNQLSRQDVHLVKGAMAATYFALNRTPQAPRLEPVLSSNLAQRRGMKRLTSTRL

KinomeScan kinase panel [4] = target: T4, KinomeScan kinase panel (Homo sapiens, UniProt P51813); details: BMX, 10 µM; read-out: score (%)
T4 construct: purchased DiscoveRx (KinomeScan)
T4 sequence (P51813 1-675): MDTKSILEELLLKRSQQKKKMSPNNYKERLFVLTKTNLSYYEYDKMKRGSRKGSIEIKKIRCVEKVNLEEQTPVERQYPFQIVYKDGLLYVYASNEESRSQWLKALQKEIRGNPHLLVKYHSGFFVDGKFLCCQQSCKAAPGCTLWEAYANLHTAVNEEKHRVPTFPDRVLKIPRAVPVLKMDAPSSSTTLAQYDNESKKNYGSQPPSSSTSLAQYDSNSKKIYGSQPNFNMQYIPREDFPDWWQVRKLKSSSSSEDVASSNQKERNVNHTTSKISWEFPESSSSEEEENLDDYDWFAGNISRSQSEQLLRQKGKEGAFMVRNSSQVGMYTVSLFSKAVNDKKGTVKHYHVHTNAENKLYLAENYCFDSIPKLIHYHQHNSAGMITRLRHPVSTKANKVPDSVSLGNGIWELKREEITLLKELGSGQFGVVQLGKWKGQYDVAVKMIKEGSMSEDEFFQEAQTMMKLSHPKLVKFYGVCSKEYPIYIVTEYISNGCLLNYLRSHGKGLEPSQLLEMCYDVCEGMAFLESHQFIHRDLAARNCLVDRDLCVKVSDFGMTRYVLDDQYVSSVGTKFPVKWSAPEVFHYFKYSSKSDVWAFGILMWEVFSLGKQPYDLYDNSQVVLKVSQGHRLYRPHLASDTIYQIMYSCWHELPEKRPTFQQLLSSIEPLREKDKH

KinomeScan kinase panel [5] = target: T5, KinomeScan kinase panel (Homo sapiens, UniProt P57059); details: 10 µM
T5 construct: purchased DiscoveRx (KinomeScan)
T5 sequence (P57059 whole entry): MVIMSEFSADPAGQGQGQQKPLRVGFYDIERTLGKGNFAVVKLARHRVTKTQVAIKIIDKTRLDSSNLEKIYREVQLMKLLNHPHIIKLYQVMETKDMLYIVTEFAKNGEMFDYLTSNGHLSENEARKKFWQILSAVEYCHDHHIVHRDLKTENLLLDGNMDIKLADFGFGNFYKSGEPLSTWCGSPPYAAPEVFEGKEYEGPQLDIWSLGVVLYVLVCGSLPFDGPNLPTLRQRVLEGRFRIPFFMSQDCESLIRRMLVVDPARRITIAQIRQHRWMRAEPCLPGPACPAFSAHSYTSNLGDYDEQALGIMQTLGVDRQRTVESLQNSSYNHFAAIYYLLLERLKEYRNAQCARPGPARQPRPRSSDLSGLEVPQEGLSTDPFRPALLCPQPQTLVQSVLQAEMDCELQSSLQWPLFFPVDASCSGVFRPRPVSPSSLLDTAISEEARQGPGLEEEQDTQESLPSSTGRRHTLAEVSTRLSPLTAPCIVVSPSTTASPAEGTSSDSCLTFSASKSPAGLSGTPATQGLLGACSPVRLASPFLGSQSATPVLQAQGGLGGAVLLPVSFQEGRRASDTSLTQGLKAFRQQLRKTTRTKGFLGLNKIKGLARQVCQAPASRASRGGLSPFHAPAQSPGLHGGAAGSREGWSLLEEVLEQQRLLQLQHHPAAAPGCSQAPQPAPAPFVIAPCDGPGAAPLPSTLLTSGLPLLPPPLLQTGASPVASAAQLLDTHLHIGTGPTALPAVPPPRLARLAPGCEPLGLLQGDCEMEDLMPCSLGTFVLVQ

KinomeScan kinase panel [6] = target: T6, KinomeScan kinase panel (Homo sapiens, UniProt Q13188); details: MST2, 10 µM; read-out: score (%)
T6 construct: purchased DiscoveRx (KinomeScan)
T6 sequence (Q13188 1-491): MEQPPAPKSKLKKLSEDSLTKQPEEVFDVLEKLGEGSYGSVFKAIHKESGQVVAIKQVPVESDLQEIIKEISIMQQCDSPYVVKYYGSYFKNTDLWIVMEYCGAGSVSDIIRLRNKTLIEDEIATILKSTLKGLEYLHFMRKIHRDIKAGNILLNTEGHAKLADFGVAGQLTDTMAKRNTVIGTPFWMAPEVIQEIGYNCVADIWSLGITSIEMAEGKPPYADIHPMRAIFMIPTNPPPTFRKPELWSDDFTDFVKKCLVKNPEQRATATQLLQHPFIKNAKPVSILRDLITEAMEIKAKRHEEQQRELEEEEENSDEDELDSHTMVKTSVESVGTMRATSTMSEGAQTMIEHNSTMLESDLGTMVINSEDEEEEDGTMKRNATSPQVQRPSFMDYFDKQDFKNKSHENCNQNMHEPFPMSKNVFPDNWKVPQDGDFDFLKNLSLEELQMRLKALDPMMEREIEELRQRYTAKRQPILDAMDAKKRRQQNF

KinomeScan kinase panel [7] = target: T7, KinomeScan kinase panel (Homo sapiens, UniProt P07949); details: 10 µM, read-out: score (%)
T7 construct: purchased DiscoveRx (KinomeScan)
T7 sequence (P07949 29-1114): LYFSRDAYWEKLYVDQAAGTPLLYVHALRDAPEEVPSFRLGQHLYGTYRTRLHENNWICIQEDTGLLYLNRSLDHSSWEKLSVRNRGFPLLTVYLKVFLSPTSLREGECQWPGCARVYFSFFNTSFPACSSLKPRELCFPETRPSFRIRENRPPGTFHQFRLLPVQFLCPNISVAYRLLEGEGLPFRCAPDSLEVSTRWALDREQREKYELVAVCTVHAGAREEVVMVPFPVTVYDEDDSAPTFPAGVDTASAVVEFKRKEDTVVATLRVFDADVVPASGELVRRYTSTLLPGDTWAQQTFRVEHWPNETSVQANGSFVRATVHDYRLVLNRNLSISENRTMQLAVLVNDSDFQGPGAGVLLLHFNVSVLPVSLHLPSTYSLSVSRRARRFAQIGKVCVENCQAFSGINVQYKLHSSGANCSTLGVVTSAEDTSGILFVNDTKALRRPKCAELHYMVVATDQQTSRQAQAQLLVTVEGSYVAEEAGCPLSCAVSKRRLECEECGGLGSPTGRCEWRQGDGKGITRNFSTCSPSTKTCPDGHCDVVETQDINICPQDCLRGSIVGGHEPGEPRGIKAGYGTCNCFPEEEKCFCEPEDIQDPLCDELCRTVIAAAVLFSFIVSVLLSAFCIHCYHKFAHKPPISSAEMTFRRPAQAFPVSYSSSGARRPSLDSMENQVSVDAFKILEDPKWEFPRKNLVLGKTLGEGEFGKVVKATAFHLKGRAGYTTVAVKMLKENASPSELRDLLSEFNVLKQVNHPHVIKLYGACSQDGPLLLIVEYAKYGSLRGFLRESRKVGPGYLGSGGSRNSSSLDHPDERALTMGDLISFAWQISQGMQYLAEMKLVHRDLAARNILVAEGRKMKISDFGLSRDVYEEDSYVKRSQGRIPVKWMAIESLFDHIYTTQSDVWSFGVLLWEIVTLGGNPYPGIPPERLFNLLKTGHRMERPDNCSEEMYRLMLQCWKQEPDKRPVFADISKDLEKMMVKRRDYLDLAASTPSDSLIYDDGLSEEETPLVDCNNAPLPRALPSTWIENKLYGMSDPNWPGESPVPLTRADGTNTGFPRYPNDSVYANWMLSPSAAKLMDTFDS

KinomeScan kinase panel [8] = target: T8, KinomeScan kinase panel (Homo sapiens, UniProt Q8NI60); details: ADCK3, 10 µM; read-out: score (%)
T8 construct: purchased DiscoveRx (KinomeScan)
T8 sequence (Q8NI60 163-647): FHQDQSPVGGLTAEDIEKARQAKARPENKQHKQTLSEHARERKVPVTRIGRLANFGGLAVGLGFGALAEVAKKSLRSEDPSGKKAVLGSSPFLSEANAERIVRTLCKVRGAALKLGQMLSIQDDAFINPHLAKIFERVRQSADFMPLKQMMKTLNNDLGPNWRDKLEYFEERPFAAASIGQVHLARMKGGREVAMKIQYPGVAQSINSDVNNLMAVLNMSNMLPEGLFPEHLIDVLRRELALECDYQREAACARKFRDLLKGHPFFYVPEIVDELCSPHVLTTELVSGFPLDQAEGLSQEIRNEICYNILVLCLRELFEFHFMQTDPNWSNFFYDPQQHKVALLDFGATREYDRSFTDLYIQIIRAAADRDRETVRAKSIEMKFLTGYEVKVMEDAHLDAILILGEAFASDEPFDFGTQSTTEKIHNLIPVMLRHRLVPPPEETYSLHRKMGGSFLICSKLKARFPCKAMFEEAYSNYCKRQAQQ

KinomeScan kinase panel [9] = target: T9, KinomeScan kinase panel (Homo sapiens, UniProt P16234); details: PDGFRA, 10 µM; read-out: score (%)
T9 construct: purchased DiscoveRx (KinomeScan)
T9 sequence (P16234 24-1089): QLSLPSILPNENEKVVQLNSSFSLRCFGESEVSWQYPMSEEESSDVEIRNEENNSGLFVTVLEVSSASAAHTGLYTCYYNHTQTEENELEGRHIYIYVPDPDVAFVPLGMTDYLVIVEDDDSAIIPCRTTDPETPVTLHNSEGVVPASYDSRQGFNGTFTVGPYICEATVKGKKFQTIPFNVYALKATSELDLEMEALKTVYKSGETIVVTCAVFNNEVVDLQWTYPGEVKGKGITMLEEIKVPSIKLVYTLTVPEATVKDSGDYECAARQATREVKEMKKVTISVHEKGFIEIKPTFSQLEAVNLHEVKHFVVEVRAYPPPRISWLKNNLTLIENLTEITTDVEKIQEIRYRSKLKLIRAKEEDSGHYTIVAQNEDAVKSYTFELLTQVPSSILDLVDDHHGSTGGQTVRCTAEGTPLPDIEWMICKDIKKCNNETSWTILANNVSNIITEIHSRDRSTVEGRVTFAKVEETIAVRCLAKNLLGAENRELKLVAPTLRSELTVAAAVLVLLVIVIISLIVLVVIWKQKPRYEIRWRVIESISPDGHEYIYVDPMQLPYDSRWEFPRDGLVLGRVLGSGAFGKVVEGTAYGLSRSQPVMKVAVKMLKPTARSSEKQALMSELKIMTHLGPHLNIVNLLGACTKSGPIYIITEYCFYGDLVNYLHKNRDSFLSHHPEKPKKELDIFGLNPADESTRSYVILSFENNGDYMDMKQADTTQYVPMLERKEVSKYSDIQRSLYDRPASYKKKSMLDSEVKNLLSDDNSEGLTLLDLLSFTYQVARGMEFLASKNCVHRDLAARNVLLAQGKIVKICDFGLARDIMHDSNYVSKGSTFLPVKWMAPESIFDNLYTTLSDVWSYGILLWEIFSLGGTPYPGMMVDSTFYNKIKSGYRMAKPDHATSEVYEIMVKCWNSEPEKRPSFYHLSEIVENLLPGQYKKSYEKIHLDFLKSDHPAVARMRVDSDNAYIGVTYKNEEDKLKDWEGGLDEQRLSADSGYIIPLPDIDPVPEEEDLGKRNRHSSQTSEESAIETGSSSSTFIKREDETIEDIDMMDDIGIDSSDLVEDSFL

KinomeScan kinase panel [10] = target: T10, KinomeScan kinase panel (Homo sapiens, UniProt O94806); details: read-out: score (%)
T10 construct: purchased DiscoveRx (KinomeScan)
T10 sequence (O94806 1-890): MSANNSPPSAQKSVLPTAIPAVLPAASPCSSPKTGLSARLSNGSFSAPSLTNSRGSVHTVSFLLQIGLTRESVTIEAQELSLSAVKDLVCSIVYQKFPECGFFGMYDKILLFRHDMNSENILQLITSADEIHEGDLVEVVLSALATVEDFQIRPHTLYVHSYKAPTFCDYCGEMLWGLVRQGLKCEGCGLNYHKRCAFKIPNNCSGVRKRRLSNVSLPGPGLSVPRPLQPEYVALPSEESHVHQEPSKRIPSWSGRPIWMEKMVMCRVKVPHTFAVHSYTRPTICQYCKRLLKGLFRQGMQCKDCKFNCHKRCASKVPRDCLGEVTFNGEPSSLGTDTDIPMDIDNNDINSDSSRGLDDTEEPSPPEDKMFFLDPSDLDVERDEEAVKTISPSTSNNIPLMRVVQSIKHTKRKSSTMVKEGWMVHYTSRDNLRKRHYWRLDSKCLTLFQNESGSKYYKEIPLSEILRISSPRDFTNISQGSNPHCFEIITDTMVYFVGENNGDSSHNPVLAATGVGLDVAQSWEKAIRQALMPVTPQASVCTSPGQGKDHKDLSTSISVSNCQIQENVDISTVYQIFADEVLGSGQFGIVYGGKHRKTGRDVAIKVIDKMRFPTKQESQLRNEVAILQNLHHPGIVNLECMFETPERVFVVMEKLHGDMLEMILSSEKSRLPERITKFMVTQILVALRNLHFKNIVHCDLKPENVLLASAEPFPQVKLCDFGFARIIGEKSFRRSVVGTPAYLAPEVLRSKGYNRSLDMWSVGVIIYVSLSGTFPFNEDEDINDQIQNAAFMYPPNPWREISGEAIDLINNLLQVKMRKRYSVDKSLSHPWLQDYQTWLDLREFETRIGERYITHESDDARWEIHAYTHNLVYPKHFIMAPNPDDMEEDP

KinomeScan kinase panel [11] = target: T11, KinomeScan kinase panel (Homo sapiens, UniProt P48730); details: CSNK1D, 10 µM; read-out: score (%)
T11 construct: purchased DiscoveRx (KinomeScan)
T11 sequence (P48730 whole entry): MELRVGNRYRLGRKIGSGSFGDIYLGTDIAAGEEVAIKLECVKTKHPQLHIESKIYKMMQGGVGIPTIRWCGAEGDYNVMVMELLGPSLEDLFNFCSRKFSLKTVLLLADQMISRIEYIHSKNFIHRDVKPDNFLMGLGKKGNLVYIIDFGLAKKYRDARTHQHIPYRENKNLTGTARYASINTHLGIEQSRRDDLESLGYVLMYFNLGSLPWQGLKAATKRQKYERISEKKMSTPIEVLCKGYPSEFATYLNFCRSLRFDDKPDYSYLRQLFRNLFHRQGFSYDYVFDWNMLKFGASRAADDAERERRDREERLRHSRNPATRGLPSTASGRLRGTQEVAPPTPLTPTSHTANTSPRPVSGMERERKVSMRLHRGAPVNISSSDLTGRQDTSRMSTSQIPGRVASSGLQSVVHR

remaining binding at 10 µM (KinomeScan kinase panel [3]; RPS6KA2(Kin.Dom.1))	remaining binding at 10 µM (KinomeScan kinase panel [3]; RPS6KA2(Kin.Dom.2))	score (%) (KinomeScan kinase panel [5]; SNF1LK)	SMILES	remaining binding at 10 µM (KinomeScan kinase panel [1])	remaining binding at 10 µM (KinomeScan kinase panel [2])	remaining binding at 10 µM (KinomeScan kinase panel [3]; kinase RSK3(Kin.Dom.1-N-terminal))	remaining binding at 10 µM (KinomeScan kinase panel [3]; kinase RSK3(Kin.Dom.2-C-terminal))	remaining binding at 10 µM (KinomeScan kinase panel [4])	score (%) (KinomeScan kinase panel [5]; kinase SIK)	remaining binding at 10 µM (KinomeScan kinase panel [6])	remaining binding at 10 µM (KinomeScan kinase panel [7]; kinase RET)	remaining binding at 10 µM (KinomeScan kinase panel [8])	remaining binding at 10 µM (KinomeScan kinase panel [9])	remaining binding at 10 µM (KinomeScan kinase panel [10]; kinase PRKD3, 10 µM)	remaining binding at 10 µM (KinomeScan kinase panel [11])	remaining binding at 10 µM (KinomeScan kinase panel [7]; RET)	remaining binding at 10 µM (KinomeScan kinase panel [10]; PRKD3, 10 µM)	remaining binding at 10 µM (KinomeScan kinase panel [3]; kinase RPS6KA2(Kin.Dom.1-N-terminal))	remaining binding at 10 µM (KinomeScan kinase panel [3]; kinase RPS6KA2(Kin.Dom.2-C-terminal))
–	–	–	CCN1CCN(Cc2ccc(NC(=O)c3ccc(C)c(C#Cc4cccnc4)c3)cc2C(F)(F)F)CC1 [XMD15-44]	1.3%	> 30%	9.5%	30%	2.7%	0.45%	> 30%	0%	> 30%	0%	22%	29%	–	–	–	–
7.4%	> 30%	0.3%	CCN1CCN(Cc2ccc(NC(=O)c3ccc(C)c(/C=C/c4cnc5[nH]ccc5c4Cl)c3)cc2C(F)(F)F)CC1 [HG-6-63-01, (E)-3-(2-(4-chloro-1H-pyrrolo[2,3-b]pyridin-5-yl)vinyl)-N-(4-((4-ethylpiperazin-1-yl)methyl)-3-(trifluoromethyl)phenyl)-4-methylbenzamide]	0.95%	> 30%	–	–	1.6%	–	10%	–	> 30%	0%	–	> 30%	0%	> 30%	–	–
–	–	–	CCN1CCN(Cc2ccc(NC(=O)c3ccc(C)c(NC(=O)c4cncc(-c5cccs5)c4)c3)cc2C(F)(F)F)CC1 [ALW-II-41-27]	0.3%	> 30%	–	–	11%	0.2%	> 30%	–	> 30%	0%	–	5%	0.05%	> 30%	> 30%	> 30%
